As a reminder, the EC50 is the concentration giving half of the maximal effect.

For assay [1], the system named is Hepatitis C virus. The assay is described as follows: Antiviral activity against Hepatitis C virus genotype 1b Con1 infected in human HuH7 cells assessed as GAPDH RNA or 18S rRNA level after 3 days selected with 40 nM HCV-796 and 800 nM boceprevir by qRT-PCR analysis. The format is functional, organism-based, Hepacivirus hominis. The following applies: Con1, Huh-7, 72 h. In general terms: Quantitative PCR measures a nucleic acid by following its amplification.

The test system of assay [2] is Hepatitis C virus. Briefly: Antiviral activity against Hepatitis C virus genotype 1b Con1 infected in human HuH7 cells assessed as GAPDH RNA or 18S rRNA level after 3 days by qRT-PCR analysis. The format is functional, organism-based, Hepacivirus hominis. The following applies: Con1, Huh-7, 72 h.
Assay [3] deals with Hepatitis C virus. The assay is described as follows: Antiviral activity against Hepatitis C virus genotype 1b Con1 infected in human HuH7 cells assessed as GAPDH RNA or 18S rRNA level after 3 days selected with 40 nM HCV-796 and 800 nM boceprevir by qRT-PCR analysis relative to control. The format is functional, organism-based, Hepacivirus hominis, Huh-7.
The subject of assay [4] is Hepatitis C virus. The assay is described as follows: Antiviral activity against Hepatitis C virus genotype 1b Con1 harboring NS5B C445F mutant infected in human HuH7.5 cells after 72 hrs by gaussia luciferase reporter assay. The format is functional, organism-based, Hepacivirus hominis. The following applies: Con1, Huh-7, 72 h. A general note: In a reporter assay the amount or activity of a reporter protein is the signal.

For assay [5], the system named is Hepatitis C virus. Briefly: Antiviral activity against Hepatitis C virus genotype 1b Con1 harboring NS5B I424V mutant infected in human HuH7.5 cells after 72 hrs by gaussia luciferase reporter assay. The format is functional, organism-based, Hepacivirus hominis. Particulars: Con1, Huh-7, 72 h.
In assay [6] the test system is Hepatitis C virus. The assay is described as follows: Antiviral activity against Hepatitis C virus genotype 1b Con1 harboring V170A and C316Y mutations mutant infected in human HuH7.5 cells after 72 hrs by gaussia luciferase reporter assay relative to control. The format is functional, Hepacivirus hominis, Huh-7.
Assay [7] relates to Hepatitis C virus. The assay is described as follows: Antiviral activity against Hepatitis C virus genotype 1b Con1 harboring NS3 V158M mutant infected in human HuH7.5 cells after 72 hrs by gaussia luciferase reporter assay relative to control. The format is functional, Hepacivirus hominis, Huh-7.
For assay [8], the system named is Hepatitis C virus. Briefly: Antiviral activity against Hepatitis C virus genotype 1b Con1 harboring NS3 K583T mutant infected in human HuH7.5 cells after 72 hrs by gaussia luciferase reporter assay. The format is functional, organism-based, Hepacivirus hominis. Particulars: Con1, Huh-7, 72 h.
Assay [9] deals with Hepatitis C virus. Briefly: Antiviral activity against Hepatitis C virus genotype 1b Con1 infected in human HuH7.5 cells after 72 hrs by gaussia luciferase reporter assay. Type of assay: functional, organism-based, Hepacivirus hominis. Particulars: Con1, Huh-7, 72 h.
Assay [10] has as its system Hepatitis C virus. The assay is described as follows: Antiviral activity against Hepatitis C virus genotype 1b Con1 harboring NS5B C316Y mutant infected in human HuH7.5 cells after 72 hrs by gaussia luciferase reporter assay relative to control. Type of assay: functional, Hepacivirus hominis, Huh-7.
The subject of assay [11] is Hepatitis C virus. Briefly: Antiviral activity against Hepatitis C virus genotype 1b Con1 harboring NS3 V170A mutant infected in human HuH7.5 cells after 72 hrs by gaussia luciferase reporter assay. Type of assay: functional, organism-based, Hepacivirus hominis. Particulars: Con1, Huh-7, 72 h.
Assay [12] concerns Hepatitis C virus. The assay is described as follows: Antiviral activity against Hepatitis C virus genotype 1b Con1 harboring NS5B I424V mutant infected in human HuH7.5 cells after 72 hrs by gaussia luciferase reporter assay relative to control. The format is functional, Hepacivirus hominis, Huh-7.
For assay [13], the system named is Hepatitis C virus. The assay is described as follows: Antiviral activity against Hepatitis C virus genotype 1b Con1 harboring NS3 E176G mutant infected in human HuH7.5 cells after 72 hrs by gaussia luciferase reporter assay relative to control. The format is functional, Hepacivirus hominis, Huh-7.
Assay [14] concerns Hepatitis C virus. The assay is described as follows: Antiviral activity against Hepatitis C virus genotype 1b Con1 harboring C316Y and C445F mutations mutant infected in human HuH7.5 cells after 72 hrs by gaussia luciferase reporter assay relative to control. The format is functional, Hepacivirus hominis, Huh-7.
Assay [15] concerns Hepatitis C virus. Briefly: Antiviral activity against Hepatitis C virus genotype 1b Con1 harboring NS3 K583T mutant infected in human HuH7.5 cells after 72 hrs by gaussia luciferase reporter assay relative to control. Type of assay: functional, Hepacivirus hominis, Huh-7.
For assay [16], the system named is Hepatitis C virus. The assay is described as follows: Antiviral activity against Hepatitis C virus genotype 1b Con1 harboring NS3 G282S mutant infected in human HuH7.5 cells after 72 hrs by gaussia luciferase reporter assay. Type of assay: functional, organism-based, Hepacivirus hominis. The following applies: Con1, Huh-7, 72 h.
The test system of assay [17] is Hepatitis C virus. Briefly: Antiviral activity against Hepatitis C virus genotype 1b Con1 harboring NS3 E176G mutant infected in human HuH7.5 cells after 72 hrs by gaussia luciferase reporter assay. Type of assay: functional, organism-based, Hepacivirus hominis. The following applies: Con1, Huh-7, 72 h.
In assay [18] the test system is Hepatitis C virus. Briefly: Antiviral activity against Hepatitis C virus genotype 1b Con1 harboring NS5B C316Y mutant infected in human HuH7.5 cells after 72 hrs by gaussia luciferase reporter assay. Particulars: Con1, Huh-7, 72 h. Type of assay: functional, organism-based, Hepacivirus hominis.
For assay [19], the system named is Hepatitis C virus. The assay is described as follows: Antiviral activity against Hepatitis C virus genotype 1b Con1 harboring NS3 V170A mutant infected in human HuH7.5 cells after 72 hrs by gaussia luciferase reporter assay relative to control. Type of assay: functional, Hepacivirus hominis, Huh-7.
In assay [20] the test system is Hepatitis C virus. The assay is described as follows: Antiviral activity against Hepatitis C virus genotype 1b Con1 infected in human HuH7 cells assessed as GAPDH RNA or 18S rRNA level after 3 days selected with […] and 400 nM boceprevir by qRT-PCR analysis. Particulars: Con1, Huh-7, 72 h. The format is functional, organism-based, Hepacivirus hominis.
Assay [21] deals with Hepatitis C virus. Briefly: Antiviral activity against Hepatitis C virus genotype 1b Con1 harboring NS3 V158M mutant infected in human HuH7.5 cells after 72 hrs by gaussia luciferase reporter assay. Type of assay: functional, organism-based, Hepacivirus hominis. The following applies: Con1, Huh-7, 72 h.
The test system of assay [22] is Hepatitis C virus. The assay is described as follows: Antiviral activity against Hepatitis C virus genotype 1b Con1 infected in human HuH7 cells assessed as GAPDH RNA or 18S rRNA level after 3 days selected with […] and 400 nM boceprevir by qRT-PCR analysis relative to control. Type of assay: functional, Hepacivirus hominis, Huh-7.
In assay [23] the test system is Hepatitis C virus. The assay is described as follows: Antiviral activity against Hepatitis C virus genotype 1b Con1 harboring V170A and C316Y mutations mutant infected in human HuH7.5 cells after 72 hrs by gaussia luciferase reporter assay. The format is functional, organism-based, Hepacivirus hominis. The following applies: Con1, Huh-7, 72 h.
Assay [24] has as its system Hepatitis C virus. The assay is described as follows: Antiviral activity against Hepatitis C virus genotype 1b Con1 harboring NS5B C445F mutant infected in human HuH7.5 cells after 72 hrs by gaussia luciferase reporter assay relative to control. The format is functional, Hepacivirus hominis, Huh-7.
The test system of assay [25] is Hepatitis C virus. The assay is described as follows: Antiviral activity against Hepatitis C virus genotype 1b Con1 harboring C316Y and C445F mutations mutant infected in human HuH7.5 cells after 72 hrs by gaussia luciferase reporter assay. The format is functional, organism-based, Hepacivirus hominis. The following applies: Con1, Huh-7, 72 h.
Assay [26] has as its system Hepatitis C virus. The assay is described as follows: Antiviral activity against Hepatitis C virus genotype 1b Con1 harboring NS3 G282S mutant infected in human HuH7.5 cells after 72 hrs by gaussia luciferase reporter assay relative to control. Type of assay: functional, Hepacivirus hominis, Huh-7.

As for `CC(=O)c1cc(F)c(Cl)cc1NCC(=O)Nc1ccccc1C(=O)O`, the results for the concentration for a half-maximal effect (EC50) in the assay with Hepatitis C virus [1] and in the assay with Hepatitis C virus [2] were above 20000 nM and 1310 nM, respectively. Moreover, the “Ratio IC50” value with Hepatitis C virus [3] is on record as above 15.

`CC(=O)c1cc(F)c(Br)cc1NCC(=O)Nc1ccccc1C(=O)O`: the EC50 with Hepatitis C virus [1] was above 15000 nM; in the assay on Hepatitis C virus [2], 499 nM; in the assay on Hepatitis C virus [3] (Hepatitis C virus, Con1, Huh-7, 72 h), above 30 nM.

On to `CCC[C@]1(CC(=O)O)OCCc2c1[nH]c1c(C)ccc(C#N)c21`, for which the 50% effective concentration (EC50) in the assay with Hepatitis C virus [1] is 7840 nM. The “Ratio IC50” value in the assay on Hepatitis C virus [3] is given as 2.

As for `C[C@@]1(O)[C@H](O)[C@@H](CO)O[C@H]1n1ccc(N)nc1=O`, the concentration giving a half-maximal response (EC50) in the assay with Hepatitis C virus [1] was determined as 1620 nM; in the assay on Hepatitis C virus [2] it was 1140 nM. Also, the “Ratio IC50” value with Hepatitis C virus [3] is given as 1.

`CO[C@H]1/C=C\C=C(/C)C(=O)NC2=CC(=O)C(NCCN(C)C)=C(C[C@@H](C)C[C@H](OC)[C@H](O)[C@@H](C)/C=C(\C)[C@@H]1OC(N)=O)C2=O` [ALVESPIMYCIN]: the figures for the 50% effective concentration (EC50) with Hepatitis C virus [1] and in the assay with Hepatitis C virus [2] were 3.1 nM and 1.2 nM, respectively. The “Ratio IC50” value with Hepatitis C virus [3] is 3.

`CC(C)(C)NC(=O)N[C@H](C(=O)N1C[C@H]2[C@@H]([C@H]1C(=O)NC(CC1CCC1)C(=O)C(N)=O)C2(C)C)C(C)(C)C` (some centres undefined) [BOCEPREVIR]: the EC50 stood at 795 nM in the assay with Hepatitis C virus [4]; 647 nM with Hepatitis C virus [5]; 1580 nM in the assay on Hepatitis C virus [1]; 165 nM in the assay on Hepatitis C virus [2]; 738 nM with Hepatitis C virus [8]; 608 nM with Hepatitis C virus [9]. In addition, the half-maximal effective concentration (EC50) with Hepatitis C virus [11] turned out to be 3170 nM; with Hepatitis C virus [16] it was 1940 nM; in the assay with Hepatitis C virus [17], 2150 nM; with Hepatitis C virus [18], 781 nM; with Hepatitis C virus [20], 1330 nM; with Hepatitis C virus [21], 377 nM. In addition, the EC50 worked out at 4360 nM in the assay with Hepatitis C virus [23] and 0.821 µM with Hepatitis C virus [25]. Further, the “Ratio IC50” value is given as 7 in the assay with Hepatitis C virus [6]; 1 with Hepatitis C virus [7]; 1 in the assay with Hepatitis C virus [10]; 1 with Hepatitis C virus [12]; 4 with Hepatitis C virus [13]; 1 with Hepatitis C virus [14]. Besides, the “Ratio IC50” value is reported as 1 in the assay on Hepatitis C virus [15]; 5 with Hepatitis C virus [19]; 10 with Hepatitis C virus [3]; 8 in the assay with Hepatitis C virus [22]; 1 with Hepatitis C virus [24]; 3 with Hepatitis C virus [26].

Regarding `COC1=C2C[C@@H](C)C[C@H](OC)[C@H](O)[C@@H](C)/C=C(\C)[C@H](OC(N)=O)[C@@H](OC)/C=C\C=C(/C)C(=O)NC(=CC1=O)C2=O` [GELDANAMYCIN], the EC50 in the assay on Hepatitis C virus [1] stood at 1.2 nM; in the assay on Hepatitis C virus [2], 0.25 nM. Further, the “Ratio IC50” value in the assay on Hepatitis C virus [3] is given as 5.

Consider `CNC(=O)c1c(-c2ccc(F)cc2)oc2cc(N(CCO)S(C)(=O)=O)c(C3CC3)cc12` [NESBUVIR], for which the EC50 was 114 nM in the assay with Hepatitis C virus [4]; 13 nM with Hepatitis C virus [5]; 3370 nM in the assay on Hepatitis C virus [1]; 2.4 nM with Hepatitis C virus [2]; 15 nM with Hepatitis C virus [8]; 14 nM in the assay with Hepatitis C virus [9]. The EC50 worked out at 13 nM in the assay on Hepatitis C virus [11]; 22 nM in the assay on Hepatitis C virus [16]; 38 nM in the assay with Hepatitis C virus [17]; 1940 nM in the assay with Hepatitis C virus [18]; 2460 nM in the assay with Hepatitis C virus [20]; 9 nM in the assay with Hepatitis C virus [21]. Besides, the 50% effective concentration (EC50) is 1340 nM in the assay with Hepatitis C virus [23] and 25.7 µM with Hepatitis C virus [25]. Also, the “Ratio IC50” value amounted to 95 in the assay with Hepatitis C virus [6]; 1 in the assay on Hepatitis C virus [7]; 138 in the assay on Hepatitis C virus [10]; 1 in the assay on Hepatitis C virus [12]; 3 in the assay with Hepatitis C virus [13]; 1834 in the assay on Hepatitis C virus [14]. In addition, the “Ratio IC50” value in the assay with Hepatitis C virus [15] was 1; in the assay with Hepatitis C virus [19], 1; in the assay with Hepatitis C virus [3], 1403; in the assay with Hepatitis C virus [22], 1025; with Hepatitis C virus [24] it was 8; in the assay on Hepatitis C virus [26], 2.

These data come from ChEMBL document CHEMBL1687718, “Selection and characterization of hepatitis C virus replicons dually resistant to the polymerase and protease inhibitors HCV-796 and boceprevir (SCH 503034)” (Antimicrob Agents Chemother, 2009).
